Measurements from PMC5622171 (Nature Communications, 2017).
pKd: −log10 of the molar value. Entries after “also recorded” stand apart in the source; their conditions may differ.

Tests used:
C57BL/6 mice = test: Animal acute toxicity study; details: oral 500 mg kg−1, days 13 and 15
Experimental: In the animal acute toxicity studies, C57BL/6 mice were randomly apportioned among six groups, with five mice per group. […] After dosing, mice were monitored daily for 15 days for morbidity and mortality. Signs of morbidity included ruffled fur, hunching, tremors, lethargy, hyperactivity and diarrhea, in addition to a reduction in weight gain. The body weight of each mouse was recorded before and after treatment. At day 15, all mice were killed and a terminal blood sample was collected for examination of clinical chemistries (e.g., renal, liver and hematopoietic function). Histopathological examination of the major organs was performed with hematoxylin and eosin staining.

[1] = tested on: hPXR transcriptional target genes; test: DNA microarray analysis in primary human hepatocytes; format: cell-based; details: 2.5 μM SPA70, 48 h
From the text: In each case, total RNA was extracted using a Qiagen RNeasy Mini Kit and amplified and labeled by using an One-Color Low Input Quick Amp Labeling Kit (Agilent, Santa Clara, CA, catalog no. 5190-2305), after which it was hybridized to the SurePrint G3 Human GE 8 × 60 K microarray (Agilent-028004), which contains 42,545 unique probes targeting 27,958 Entrez genes. Microarrays were scanned with an Agilent array scanner (G2565CA) at 3-μm resolution. Microarray data were extracted by Agilent Feature Extraction software (v10.5.1.1). Quantile normalization of log-transformed, background-subtracted signal intensity was performed for all samples. This was followed by comparisons between sets of replicates from different experimental groups. Student’s t-test was used to determine the statistical significance of the difference between the paired samples from three replicates of each experiment. […] The data processing and PCA analysis were performed using Partek software (St. Louis, MO)[52]. The GEO accession number for the microarray analysis is GSE90122.

hCAR = biological target: T1, hCAR (Homo sapiens, UniProt Q14994); test: hCAR transactivation assay, inverse agonistic mode; format: cell-based
T1 construct: expressed in transfected cells; host or cells: HepG2
Experimental: The hCAR transactivation assays were performed as described previously[48]. […] The relative luciferase activity was determined by normalizing the firefly luciferase signal to the Renilla luciferase signal and was used to represent the ‘relative activity of CAR’. The final DMSO concentration was 0.4% in all assays.

[2] = tested on: LS180 cells with stable exogenous expression of hPXR; test: CellTiter-Glo cytotoxicity assay; details: 10 µM SPA70
Experimental: (§5) For the LS180, SNU-C4 and LS1034 cytotoxicity assays, cells were seeded in a 96-well plate (Corning) at 4000 cells per well. […] Cell viability was assessed using the CellTiter-Glo assay.

LS1034 cells = test: CellTiter-Glo cytotoxicity assay; details: 10 µM SPA70
Experimental: as §5

HEK293 cells = test: One- and 3-day cytotoxicity assay; format: cell-based, human; details: HEK293, one- and 3-day
Experimental: (§1) After the plated had been incubated for 24 or 72 h at 37 °C, the cytotoxicity was determined using a CellTiter-Glo luminescent cell viability assay (Promega). […] The final DMSO concentration was 0.5% for all wells.

HepG2 cells = test: One- and 3-day cytotoxicity assay; format: cell-based, human; details: HepG2, one- and 3-day
Experimental: as §1

PAK3 = biological target: T2, PAK3 (Homo sapiens, UniProt O75914); test: KINOMEscan kinase profiling; format: binding; details: read-out: %Inhibition by 10 μM SPA70
T2 construct: purchased DiscoverX (Ambit Biosciences) KINOMEscan
Experimental: (§2) Kinase inhibition profiling assays. The kinase inhibition profiling assay (KINOMEscan) was performed by Ambit Biosciences, now part of DiscoveryX (Fremont, CA) in accordance with the […]
(§3) published protocol20, 21. […] If the inhibition of a kinase was greater […]
(§4) dilutions) starting from 30 µM.

CDKL2 = biological target: T3, CDKL2 (Homo sapiens, UniProt Q92772); test: KINOMEscan kinase profiling; format: binding; details: read-out: %Inhibition by 10 μM SPA70
T3 construct: purchased DiscoverX (Ambit Biosciences) KINOMEscan
Experimental: as §2, §3, §4

ERN1 = biological target: T4, ERN1 (Homo sapiens, UniProt O75460); test: KINOMEscan kinase profiling; format: binding; details: read-out: %Inhibition by 10 μM SPA70
T4 construct: purchased DiscoverX (Ambit Biosciences) KINOMEscan
Experimental: as §2, §3, §4

EPHA6 = biological target: T5, EPHA6 (Homo sapiens, UniProt Q9UF33); test: KINOMEscan kinase profiling; format: binding; details: read-out: %Inhibition by 10 μM SPA70
T5 construct: purchased DiscoverX (Ambit Biosciences) KINOMEscan
Experimental: as §2, §3, §4

[3] = biological target: T6, RSK4(Kin.Dom.2-C-terminal) (Homo sapiens, UniProt Q9UK32); test: KINOMEscan kinase profiling; format: binding
T6 construct: RSK4(Kin.Dom.2-C-terminal); purchased DiscoverX (Ambit Biosciences) KINOMEscan
Experimental: as §2, §3, §4

PLK1 = biological target: T7, PLK1 (Homo sapiens, UniProt P53350); test: KINOMEscan kinase profiling; format: binding; details: read-out: %Inhibition by 10 μM SPA70
T7 construct: purchased DiscoverX (Ambit Biosciences) KINOMEscan
Experimental: as §2, §3, §4

DAPK1 = biological target: T8, DAPK1 (Homo sapiens, UniProt P53355); test: KINOMEscan kinase profiling; format: binding; details: read-out: %Inhibition by 10 μM SPA70
T8 construct: purchased DiscoverX (Ambit Biosciences) KINOMEscan
Experimental: as §2, §3, §4

ULK3 = biological target: T9, ULK3 (Homo sapiens, UniProt Q6PHR2); test: KINOMEscan kinase profiling; format: binding
T9 construct: purchased DiscoverX (Ambit Biosciences) KINOMEscan
Experimental: as §2, §3, §4

CAMK2A = biological target: T10, CAMK2A (Homo sapiens, UniProt Q9UQM7); test: KINOMEscan kinase profiling; format: binding; details: read-out: %Inhibition by 10 μM SPA70
T10 construct: purchased DiscoverX (Ambit Biosciences) KINOMEscan
Experimental: as §2, §3, §4

PFTAIRE2 = biological target: T11, PFTAIRE2 (Homo sapiens, UniProt Q96Q40); test: KINOMEscan kinase profiling; format: binding; details: read-out: %Inhibition by 10 μM SPA70
T11 construct: purchased DiscoverX (Ambit Biosciences) KINOMEscan
Experimental: as §2, §3, §4

[4] = biological target: T12, RPS6KA5(Kin.Dom.2-C-terminal) (Homo sapiens, UniProt O75582); test: KINOMEscan kinase profiling; format: binding; details: read-out: %Inhibition by 10 μM SPA70
T12 construct: RPS6KA5(Kin.Dom.2-C-terminal); purchased DiscoverX (Ambit Biosciences) KINOMEscan
Experimental: as §2, §3, §4

VRK2 = biological target: T13, VRK2 (Homo sapiens, UniProt Q86Y07); test: KINOMEscan kinase profiling; format: binding; details: read-out: %Inhibition by 10 μM SPA70
T13 construct: purchased DiscoverX (Ambit Biosciences) KINOMEscan
Experimental: as §2, §3, §4

HUNK = biological target: T14, HUNK (Homo sapiens, UniProt P57058); test: KINOMEscan kinase profiling; format: binding; details: read-out: %Inhibition by 10 μM SPA70
T14 construct: purchased DiscoverX (Ambit Biosciences) KINOMEscan
Experimental: as §2, §3, §4

PLK3 = biological target: T15, PLK3 (Homo sapiens, UniProt Q9H4B4); test: KINOMEscan kinase profiling; format: binding; details: read-out: %Inhibition by 10 μM SPA70
T15 construct: purchased DiscoverX (Ambit Biosciences) KINOMEscan
Experimental: as §2, §3, §4

MAK = biological target: T16, MAK (Homo sapiens, UniProt P20794); test: KINOMEscan kinase profiling; format: binding; details: read-out: %Inhibition by 10 μM SPA70
T16 construct: purchased DiscoverX (Ambit Biosciences) KINOMEscan
Experimental: as §2, §3, §4

NEK1 = biological target: T17, NEK1 (Homo sapiens, UniProt Q96PY6); test: KINOMEscan kinase profiling; format: binding; details: read-out: %Inhibition by 10 μM SPA70
T17 construct: purchased DiscoverX (Ambit Biosciences) KINOMEscan
Experimental: as §2, §3, §4

ERK5 = biological target: T18, ERK5 (Homo sapiens, UniProt Q13164); test: KINOMEscan kinase profiling; format: binding; details: read-out: %Inhibition by 10 μM SPA70
T18 construct: purchased DiscoverX (Ambit Biosciences) KINOMEscan
Experimental: as §2, §3, §4

KIT = biological target: T19, KIT (Homo sapiens, UniProt P10721); test: KINOMEscan kinase profiling; format: binding
T19 construct: purchased Ambit Biosciences, now part of DiscoveryX
Experimental: as §2, §3, §4

TGFBR2 = biological target: T20, TGFBR2 (Homo sapiens, UniProt P37173); test: KINOMEscan kinase profiling; format: binding; details: read-out: %Inhibition by 10 μM SPA70
T20 construct: purchased DiscoverX (Ambit Biosciences) KINOMEscan
Experimental: as §2, §3, §4

BRK = biological target: T21, BRK (Homo sapiens, UniProt Q13882); test: KINOMEscan kinase profiling; format: binding; details: read-out: %Inhibition by 10 μM SPA70
T21 construct: purchased DiscoverX (Ambit Biosciences) KINOMEscan
Experimental: as §2, §3, §4

MYO3A = biological target: T22, MYO3A (Homo sapiens, UniProt Q8NEV4); test: KINOMEscan kinase profiling; format: binding; details: read-out: %Inhibition by 10 μM SPA70
T22 construct: purchased DiscoverX (Ambit Biosciences) KINOMEscan
Experimental: as §2, §3, §4

ICK = biological target: T23, ICK (Homo sapiens, UniProt Q9UPZ9); test: KINOMEscan kinase profiling; format: binding; details: read-out: %Inhibition by 10 μM SPA70
T23 construct: purchased DiscoverX (Ambit Biosciences) KINOMEscan
Experimental: as §2, §3, §4

HIPK4 = biological target: T24, HIPK4 (Homo sapiens, UniProt Q8NE63); test: KINOMEscan kinase profiling; format: binding; details: read-out: %Inhibition by 10 μM SPA70
T24 construct: purchased DiscoverX (Ambit Biosciences) KINOMEscan
Experimental: as §2, §3, §4

PRKG2 = biological target: T25, PRKG2 (Homo sapiens, UniProt Q13237); test: KINOMEscan kinase profiling; format: binding; details: read-out: %Inhibition by 10 μM SPA70
T25 construct: purchased DiscoverX (Ambit Biosciences) KINOMEscan
Experimental: as §2, §3, §4

PAK2 = biological target: T26, PAK2 (Homo sapiens, UniProt Q13177); test: KINOMEscan kinase profiling; format: binding; details: read-out: %Inhibition by 10 μM SPA70
T26 construct: purchased DiscoverX (Ambit Biosciences) KINOMEscan
Experimental: as §2, §3, §4

NEK4 = biological target: T27, NEK4 (Homo sapiens, UniProt P51957); test: KINOMEscan kinase profiling; format: binding; details: read-out: %Inhibition by 10 μM SPA70
T27 construct: purchased DiscoverX (Ambit Biosciences) KINOMEscan
Experimental: as §2, §3, §4

T19 sequence (P10721 26-976): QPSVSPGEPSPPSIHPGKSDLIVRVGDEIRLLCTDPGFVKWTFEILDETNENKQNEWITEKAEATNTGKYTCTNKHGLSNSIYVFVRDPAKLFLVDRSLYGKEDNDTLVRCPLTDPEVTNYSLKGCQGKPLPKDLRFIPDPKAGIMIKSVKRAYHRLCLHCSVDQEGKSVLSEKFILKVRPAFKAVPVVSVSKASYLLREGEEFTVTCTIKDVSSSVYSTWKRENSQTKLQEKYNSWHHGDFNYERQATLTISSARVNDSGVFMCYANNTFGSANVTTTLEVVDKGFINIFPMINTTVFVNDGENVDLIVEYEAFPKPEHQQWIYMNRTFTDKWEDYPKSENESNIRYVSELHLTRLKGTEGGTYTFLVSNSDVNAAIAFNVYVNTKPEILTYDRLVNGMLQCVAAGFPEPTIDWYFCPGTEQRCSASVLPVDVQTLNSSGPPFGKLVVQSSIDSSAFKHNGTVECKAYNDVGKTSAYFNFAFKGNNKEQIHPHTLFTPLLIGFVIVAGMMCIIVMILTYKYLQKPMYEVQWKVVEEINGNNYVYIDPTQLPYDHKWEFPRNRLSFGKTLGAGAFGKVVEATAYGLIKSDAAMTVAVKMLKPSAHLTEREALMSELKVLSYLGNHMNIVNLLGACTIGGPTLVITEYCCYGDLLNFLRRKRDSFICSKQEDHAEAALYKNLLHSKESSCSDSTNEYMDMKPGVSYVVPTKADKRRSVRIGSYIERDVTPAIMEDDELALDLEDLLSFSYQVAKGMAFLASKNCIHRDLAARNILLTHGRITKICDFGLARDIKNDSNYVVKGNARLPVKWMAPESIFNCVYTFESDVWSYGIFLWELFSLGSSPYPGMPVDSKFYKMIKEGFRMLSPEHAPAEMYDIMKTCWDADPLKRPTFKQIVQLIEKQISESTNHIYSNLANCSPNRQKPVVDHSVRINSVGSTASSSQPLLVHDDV
T1 sequence (Q14994 whole entry): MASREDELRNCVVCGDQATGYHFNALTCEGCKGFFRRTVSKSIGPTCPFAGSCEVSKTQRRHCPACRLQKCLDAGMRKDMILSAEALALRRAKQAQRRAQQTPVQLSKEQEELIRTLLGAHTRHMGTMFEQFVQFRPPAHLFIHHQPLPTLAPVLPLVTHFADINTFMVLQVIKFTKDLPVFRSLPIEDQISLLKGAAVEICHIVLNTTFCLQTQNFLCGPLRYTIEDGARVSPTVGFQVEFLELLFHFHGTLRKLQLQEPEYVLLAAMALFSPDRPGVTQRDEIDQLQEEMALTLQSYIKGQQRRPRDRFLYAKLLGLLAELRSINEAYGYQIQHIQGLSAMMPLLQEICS
T21 sequence (Q13882 whole entry): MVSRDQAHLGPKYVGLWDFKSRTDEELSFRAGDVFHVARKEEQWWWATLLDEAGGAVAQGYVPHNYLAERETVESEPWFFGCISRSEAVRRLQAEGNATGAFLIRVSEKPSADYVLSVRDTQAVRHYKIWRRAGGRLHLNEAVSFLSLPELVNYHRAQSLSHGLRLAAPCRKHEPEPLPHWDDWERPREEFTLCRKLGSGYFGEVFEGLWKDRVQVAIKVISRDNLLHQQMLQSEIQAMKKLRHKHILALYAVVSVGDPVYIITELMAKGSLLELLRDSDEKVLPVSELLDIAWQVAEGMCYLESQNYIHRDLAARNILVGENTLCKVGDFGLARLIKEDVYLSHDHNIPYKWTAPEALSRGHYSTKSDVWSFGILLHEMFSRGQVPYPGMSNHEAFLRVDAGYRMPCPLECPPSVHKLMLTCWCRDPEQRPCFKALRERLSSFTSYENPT
T16 sequence (P20794 whole entry): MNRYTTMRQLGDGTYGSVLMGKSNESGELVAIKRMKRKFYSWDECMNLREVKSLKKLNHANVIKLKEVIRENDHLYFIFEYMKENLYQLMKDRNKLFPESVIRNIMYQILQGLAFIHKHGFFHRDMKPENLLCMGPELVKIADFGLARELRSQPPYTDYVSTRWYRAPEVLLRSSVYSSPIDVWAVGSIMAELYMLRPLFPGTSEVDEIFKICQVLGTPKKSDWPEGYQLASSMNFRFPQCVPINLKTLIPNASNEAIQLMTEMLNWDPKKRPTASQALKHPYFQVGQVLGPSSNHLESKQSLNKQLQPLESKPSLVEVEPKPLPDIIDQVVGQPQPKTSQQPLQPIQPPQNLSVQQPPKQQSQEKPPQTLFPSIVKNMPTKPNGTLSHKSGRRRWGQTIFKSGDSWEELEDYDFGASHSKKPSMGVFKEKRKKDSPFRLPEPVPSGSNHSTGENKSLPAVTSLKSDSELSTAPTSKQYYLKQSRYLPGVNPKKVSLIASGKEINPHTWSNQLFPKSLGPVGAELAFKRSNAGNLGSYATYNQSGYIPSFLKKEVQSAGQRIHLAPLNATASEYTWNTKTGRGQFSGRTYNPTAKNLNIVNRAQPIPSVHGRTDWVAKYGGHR
T8 sequence (P53355 whole entry): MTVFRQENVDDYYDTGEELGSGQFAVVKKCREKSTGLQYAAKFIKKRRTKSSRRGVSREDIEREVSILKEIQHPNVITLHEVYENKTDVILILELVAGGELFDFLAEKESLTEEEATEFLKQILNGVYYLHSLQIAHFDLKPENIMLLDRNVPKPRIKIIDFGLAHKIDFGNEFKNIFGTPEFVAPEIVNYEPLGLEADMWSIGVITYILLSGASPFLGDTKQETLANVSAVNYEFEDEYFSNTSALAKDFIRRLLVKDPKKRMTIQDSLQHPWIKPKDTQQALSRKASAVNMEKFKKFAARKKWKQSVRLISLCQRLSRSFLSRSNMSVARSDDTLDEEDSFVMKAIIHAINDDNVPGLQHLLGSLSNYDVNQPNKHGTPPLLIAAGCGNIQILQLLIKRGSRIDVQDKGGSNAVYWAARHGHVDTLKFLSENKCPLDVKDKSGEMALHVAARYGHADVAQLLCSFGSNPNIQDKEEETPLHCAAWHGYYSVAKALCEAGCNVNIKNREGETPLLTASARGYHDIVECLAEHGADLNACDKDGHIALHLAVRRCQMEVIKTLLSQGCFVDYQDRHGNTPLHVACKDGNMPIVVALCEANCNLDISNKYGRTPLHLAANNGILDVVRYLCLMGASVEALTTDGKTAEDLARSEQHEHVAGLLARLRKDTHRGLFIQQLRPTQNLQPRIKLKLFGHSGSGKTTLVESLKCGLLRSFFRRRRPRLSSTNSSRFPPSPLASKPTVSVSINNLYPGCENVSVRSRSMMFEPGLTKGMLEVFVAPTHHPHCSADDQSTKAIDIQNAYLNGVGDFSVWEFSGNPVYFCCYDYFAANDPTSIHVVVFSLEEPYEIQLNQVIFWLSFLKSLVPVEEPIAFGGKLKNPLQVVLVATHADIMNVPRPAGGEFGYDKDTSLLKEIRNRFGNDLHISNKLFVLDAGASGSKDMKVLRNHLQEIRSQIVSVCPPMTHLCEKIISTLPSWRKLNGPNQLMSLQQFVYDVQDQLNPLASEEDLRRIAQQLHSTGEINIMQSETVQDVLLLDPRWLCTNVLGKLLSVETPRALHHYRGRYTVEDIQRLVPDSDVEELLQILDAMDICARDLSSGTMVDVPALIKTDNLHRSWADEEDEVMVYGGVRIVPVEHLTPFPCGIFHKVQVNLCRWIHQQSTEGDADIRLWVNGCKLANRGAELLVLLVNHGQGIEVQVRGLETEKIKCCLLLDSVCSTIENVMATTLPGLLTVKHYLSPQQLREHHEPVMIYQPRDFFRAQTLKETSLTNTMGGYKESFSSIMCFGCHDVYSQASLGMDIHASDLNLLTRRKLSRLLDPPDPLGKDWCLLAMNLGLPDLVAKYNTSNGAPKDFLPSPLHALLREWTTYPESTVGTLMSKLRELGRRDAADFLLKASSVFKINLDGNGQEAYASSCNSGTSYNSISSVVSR
T13 sequence (Q86Y07 whole entry): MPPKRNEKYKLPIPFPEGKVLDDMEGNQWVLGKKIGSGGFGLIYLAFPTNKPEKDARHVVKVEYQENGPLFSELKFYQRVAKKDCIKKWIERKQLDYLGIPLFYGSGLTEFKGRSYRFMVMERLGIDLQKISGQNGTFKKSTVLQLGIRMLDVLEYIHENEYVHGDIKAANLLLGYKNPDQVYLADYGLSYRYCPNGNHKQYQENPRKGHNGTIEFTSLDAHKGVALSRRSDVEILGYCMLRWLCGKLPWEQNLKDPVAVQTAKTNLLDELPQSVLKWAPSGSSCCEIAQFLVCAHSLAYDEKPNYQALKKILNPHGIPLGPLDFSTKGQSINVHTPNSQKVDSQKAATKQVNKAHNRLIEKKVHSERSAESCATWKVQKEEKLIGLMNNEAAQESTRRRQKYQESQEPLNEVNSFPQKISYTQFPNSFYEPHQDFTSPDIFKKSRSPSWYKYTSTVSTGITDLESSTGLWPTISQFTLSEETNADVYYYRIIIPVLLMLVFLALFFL
T26 sequence (Q13177 whole entry): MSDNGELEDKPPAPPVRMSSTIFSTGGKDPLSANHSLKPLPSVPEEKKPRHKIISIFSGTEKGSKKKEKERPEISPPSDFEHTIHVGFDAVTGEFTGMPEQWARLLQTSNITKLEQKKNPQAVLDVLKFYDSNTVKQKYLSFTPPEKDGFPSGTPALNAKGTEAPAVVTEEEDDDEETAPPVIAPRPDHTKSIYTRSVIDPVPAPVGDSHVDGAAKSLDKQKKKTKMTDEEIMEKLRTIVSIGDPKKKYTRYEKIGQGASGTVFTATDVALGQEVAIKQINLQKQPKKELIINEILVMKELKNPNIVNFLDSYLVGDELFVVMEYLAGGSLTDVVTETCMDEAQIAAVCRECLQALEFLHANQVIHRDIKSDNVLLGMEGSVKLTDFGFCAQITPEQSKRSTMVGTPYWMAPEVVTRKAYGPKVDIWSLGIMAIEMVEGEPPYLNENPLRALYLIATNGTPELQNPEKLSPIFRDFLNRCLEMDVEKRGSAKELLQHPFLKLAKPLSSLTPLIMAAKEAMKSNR

COc1ccc(OC)c(-n2nnc(S(=O)(=O)c3ccc(C(C)(C)C)cc3)c2C)c1 [SPA70]
Mouse body weight (C57BL/6 mice): increase in mouse body weight | Effect on induction of hPXR transcriptional target genes by rifampicin, SR12813 and T090137 [1]: blocked their induction | Effect on basal activity of CAR (hCAR): very weak CAR inverse agonist; also recorded: very weakly inhibited the basal activity | Effect on paclitaxel sensitivity of LS180 cells with exogenous hPXR [2]: re-sensitized the cells to paclitaxel | Sensitization of LS1034 cells to paclitaxel and vincristine (LS1034 cells): sensitized LS1034 cells to both paclitaxel and vincristine | Cytotoxicity (HEK293 cells): marginal cytotoxicity | Cytotoxicity (HepG2 cells): marginal cytotoxicity | inhibition at 10 µM (PAK3): 0% | inhibition at 10 µM (CDKL2): 22% | inhibition at 10 µM (ERN1): 0% | inhibition at 10 µM (EPHA6): 0% | %Inhibition by 10 μM SPA70 [3]: 16% | inhibition at 10 µM (PLK1): 0% | inhibition at 10 µM (DAPK1): 10% | %Inhibition by 10 μM SPA70 (ULK3): 2% | inhibition at 10 µM (CAMK2A): 0% | inhibition at 10 µM (PFTAIRE2): 0% | inhibition at 10 µM [4]: 37% | inhibition at 10 µM (VRK2): 0% | inhibition at 10 µM (HUNK): 15% | inhibition at 10 µM (PLK3): 33% | inhibition at 10 µM (MAK): 13% | inhibition at 10 µM (NEK1): 0% | inhibition at 10 µM (ERK5): 0% | pKd (KIT; 11-point 3-fold serial dilutions starting from 30 µM): 5.60 | inhibition at 10 µM (KIT; read-out: %Inhibition by 10 μM SPA70): 83% | inhibition at 10 µM (TGFBR2): 1% | inhibition at 10 µM (BRK): 0% | inhibition at 10 µM (MYO3A): 0% | inhibition at 10 µM (ICK): 0% | inhibition at 10 µM (HIPK4): 0% | inhibition at 10 µM (PRKG2): 12% | inhibition at 10 µM (PAK2): 0% | inhibition at 10 µM (NEK4): 21%
